Target: T1, oxytocin receptor (Rattus norvegicus, UniProt P70536)
T1 construct: crude membrane preparation of rat uterus as the source of oxytocin receptors; from tissue; host or cells: rat uterus, crude membrane preparation
T1 sequence (P70536 1-388): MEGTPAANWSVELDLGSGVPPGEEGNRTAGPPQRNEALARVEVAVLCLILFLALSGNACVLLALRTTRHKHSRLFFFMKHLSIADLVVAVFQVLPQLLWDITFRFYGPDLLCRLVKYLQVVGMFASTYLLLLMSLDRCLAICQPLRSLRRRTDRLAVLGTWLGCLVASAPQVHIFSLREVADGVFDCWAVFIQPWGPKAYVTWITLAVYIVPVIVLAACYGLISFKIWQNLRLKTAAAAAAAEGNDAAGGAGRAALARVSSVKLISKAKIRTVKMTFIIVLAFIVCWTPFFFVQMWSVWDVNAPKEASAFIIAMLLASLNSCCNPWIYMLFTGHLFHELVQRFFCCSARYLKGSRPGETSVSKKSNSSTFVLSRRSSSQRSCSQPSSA
Assay: [^3H]Oxytocin Binding Assay (crude membrane preparation of rat uterus)
Settings: not given
From the text: The biological activities of the compounds of Formula I have been evaluated using a[^3 H]oxytocin binding assay.
[^3 H]Oxytocin Binding Assay
Oxytocin receptors have been identified in mammalian uterine tissue through the use of in vitro radioligand binding assays. These receptor binding sites mediate the contractile response of the uterine myometrium to oxytocin. The present radioligand binding procedure has been adapted from the methods of Soloff, M. S. and Grzonka, Z., Endocrinology 119: 1564-1569 (1986) and Fuchs, A-R., Fuchs, F., and Soloff, M. S., J. Clinical Endocrinology and Metabolism 60: 37-41 (1985) and is utilized here to measure the relative affinity of test compounds for the oxytocin receptor labeled by [^3 H]oxytocin. The assay uses a crude membrane preparation of rat uterus as the source of oxytocin receptors. The IC50 values (concentration of test compound to inhibit [^3 H]oxytocin binding by 50%) are determined by incubating uterine tissue with [^3 H]oxytocin in the presence or absence of varying concentrations of compound.

Structure (SMILES)	IC50 [nM]
CN1C(=O)C(NC(=O)NC2C3CC4CC(C3)CC2C4)N=C(c2ccccc2)c2ccccc21 (racemic) [Example 1, (+/-)-N-(2,3-DIHYDRO-1-METHYL-2-OXO-5-PHENYL-1H-1,4-BENZODIAZEPIN-3-YL)-N'- TRICYCLO(3.3.1.1(3,7))DEC-2-YL-UREA]	3900
CN1C(=O)C(NC(=O)C23CC4CC(CC(C4)C2)C3)N=C(c2ccccc2)c2ccccc21 (racemic) [Example 4, (+/-)-N-(2,3-DIHYDRO-1-METHYL-2-OXO-5-PHENYL-1H-1,4-BENZODIAZEPIN-3-YL)-TRICYCLO(3.3.1.1(3,7))DECANE-1-CARBOXAMIDE]	13800
CN1C(=O)C(NC(=O)CC23CC4CC(CC(C4)C2)C3)N=C(c2ccccc2)c2ccccc21 (racemic) [Example 5, (+/-)-N-(2,3-DIHYDRO-1-METHYL-2-OXO-5-PHENYL-1H-1,4-BENZODIAZEPIN-3-YL)-TRICYCLO(3.3.1.1(3,7))DECANE-1-ACETAMIDE)]	2800
CN1C(=O)C(NC(=O)NCC23CC4CC(CC(C4)C2)C3)N=C(c2ccccc2)c2ccccc21 (racemic) [Example 6, (+/-)-N-(2,3-DIHYDRO-1-METHYL-2-OXO-5-PHENYL-1H-1,4-BENZODIAZEPIN-3-YL)-N'- TRICYCLO(3.3.1.1(3,7))DEC-1-YL-METHYL)-UREA]	2700
CN1C(=O)C(NC(=O)CC23CC4CC(CC(C)(C4)C2)C3)N=C(c2ccccc2)c2ccccc21 (racemic) [Example 7, (+/-)-N-(2,3-DIHYDRO-1-METHYL-2-OXO-5-PHENYL-1H-1,4-BENZODIAZEPIN-3-YL)-3-METHYLTRICYCLO(3.3.1.1(3,7))DECANE-1-ACETAMIDE]	4700
CN1C(=O)[C@H](NC(=O)NC23CC4CC(CC(C4)C2)C3)N=C(c2ccccc2)c2ccccc21 (single isomer, unassigned) [Example 3]	1690
CN1C(=O)[C@H](NS(=O)(=O)C[C@@]23CC[C@@H](CC2O)C3(C)C)N=C(c2ccccc2)c2ccccc21 (single isomer, unassigned) [Example 16A, N-(2,3-DIHYDRO-1-METHYL-2-OXO-5-PHENYL-1H-1,4-BENZODIAZEPIN-3-YL)-2-HYDROXY-7,7-DIMETHYL-BICYCLO(2.2.1) HEPTANE-1-METHANESULFONAMIDE, ISOMER A AND ISOMER B]	1400
CN1C(=O)C(NC(=O)NC2C3CC4CC(C3)CC2C4)N=C(c2ccccc2)c2ccccc21 (single isomer, unassigned; (+)) [Example 2, (+)-N-(2,3-DIHYDRO-1-METHYL-2-OXO-5-PHENYL-1H-1,4-BENZODIAZEPIN-3-YL)-N'-TRICYCLO(3.3.1.1(3,7))DEC-2-YL-UREA]	1600
CN1C(=O)C(NS(=O)(=O)C[C@]23CC[C@H](CC2=O)C3(C)C)N=C(c2ccccc2)c2ccccc21 (stereo partly drawn) [Example 8, (1S)-(1.ALPHA.(RS),4.ALPHA.))-N-(2,3-DIHYDRO-1-METHYL-2-OXO-5-PHENYL-1H-1,4-BENZODIAZEPIN-3-YL)-7,7-DIMETHYL-2-OXO-BICYCLO(2.2.1)HEPTANE-1-METHANESULFONAMIDE]	4600
CN1C(=O)C(NS(=O)(=O)C[C@@]23CC[C@@H](CC2=O)C3(C)C)N=C(c2ccccc2)c2ccccc21 (stereo partly drawn) [Example 9, (1R-(1.ALPHA.(RS),4.ALPHA.))-N-(2,3-DIHYDRO-1-METHYL-2-OXO-5-PHENYL-1H-1,4- BENZODIAZEPIN-3-YL)-7,7-DIMETHYL-2-OXO-BICYCLO(2.2.1)HEPTANE-1-METHANESULFONAMIDE]	3600
CN1C(=O)[C@H](NS(=O)(=O)C[C@@]23CC[C@@H](CC2=O)C3(C)C)N=C(c2ccccc2)c2ccccc21 [Example 15, (1R-(1.ALPHA.(S*),4.ALPHA.))-N-(2,3-DIHYDRO-1-METHYL-2-OXO-5-PHENYL-1H-1,4- BENZODIAZEPIN-3-YL)-7,7-DIMETHYL-2-OXO-BICYCLO(2.2.1)HEPTANE-1-METHANESULFONAMIDE]	1400
CN1C(=O)[C@@H](NS(=O)(=O)C[C@@]23CC[C@@H](CC2O)C3(C)C)N=C(c2ccccc2)c2ccccc21 (stereo partly drawn) [Example 17, N-(2,3-DIHYDRO-1-METHYL-2-OXO-5-PHENYL-1H-1,4-BENZODIAZEPIN-3-YL)-2-HYDROXY-7,7-DIMETHYL-BICYCLO(2.2.1) HEPTANE-1-METHANESULFONAMIDE]	2500

Same assay, conditions: [^3H]oxytocin binding, rat uterus membranes; @ 10 μM

Structure (SMILES)	% inhibition @ μM conc. (10 μM) [%]
CN1C(=O)[C@@H](NC(=O)CC2C3CCC(C)(C2O)C3(C)C)N=C(c2ccccc2)c2ccccc21 (single isomer, unassigned) [Example 22B]	41

Same assay, conditions: [^3H]oxytocin binding, rat uterus membranes; @ 10 μM; read-out: % inhibition @ μM conc. (10 μM)

Structure (SMILES)	inhibition at 10 µM [%]
CN1C(=O)CN(C(=O)NCC23CC4CC(CC(C4)C2)C3)C(c2ccccc2)c2ccccc21 (racemic) [Example 12, (+/-)-1,2,3,5-TETRAHYDRO-1-METHYL-2-OXO-5-PHENYL-N-(TRICYCLO(3.3.1.1.(3,7))DEC-1-YLMETHYL)-4H-1,4-BENZODIAZEPINE-4-CARBOXAMIDE]	66
CN1C(=O)CN(C(=O)NC2C3CC4CC(C3)CC2C4)C(c2ccccc2)c2ccccc21 (racemic) [Example 13, (+/-)-1,2,3,5-TETRAHYDRO-1-METHYL-2-OXO-5-PHENYL-N-TRICYCLO(3.3.1.1(3,7))DEC-2-YL-4H-1,4-BENZODIAZEPINE-4-CARBOXAMIDE]	48

Same assay, conditions: read-out: % inhibition @ μM conc. (1 μM), [^3H]oxytocin binding, rat uterus membranes; @ 1 μM

Structure (SMILES)	inhibition at 1 µM [%]
CN1C(=O)[C@H](NC(=O)CC2C(=O)C3(C)CCC2C3(C)C)N=C(c2ccccc2)c2ccccc21 (single isomer, unassigned) [Example 19]	39
CN1C(=O)[C@H](NS(=O)(=O)C[C@]23CC[C@H](CC2=O)C3(C)C)N=C(c2ccccc2)c2ccccc21 [Example 20, (1S-(1.ALPHA.(S*),4.ALPHA.))-N-(2,3-DIHYDRO-1-METHYL-2-OXO-5-PHENYL-1H-1,4- BENZODIAZEPIN-3-YL)-7,7-DIMETHYL-2-OXO-BICYCLO(2.2.1)HEPTANE-1-METHANESULFONAMIDE]	35
CN1C(=O)[C@H](NC(=O)C2C(=O)C3(C)CCC2C3(C)C)N=C(c2ccccc2)c2ccccc21 (stereo partly drawn) [Example 23, [3(R)-N-(2,3-DIHYDRO-1-METHYL-2-OXO-5-PHENYL-1H-1,4-BENZODIAZEPIN-3-YL)]-2- OXO-1,7,7-TRIMETHYLBICYCLO(2.2.1)HEPTANE-3-CARBOXAMIDE]	35

Same assay, conditions: read-out: % inhibition @ μM conc. (10 μM), [^3H]oxytocin binding, rat uterus membranes; @ 10 μM

Structure (SMILES)	inhibition at 10 µM [%]
CCOC(=O)[C@@H](NC(=O)NC1N=C(c2ccccc2)c2ccccc2N(C)C1=O)c1ccccc1 (single isomer, unassigned) [Example 11, ALPHA.-((((2,3-DIHYDRO-1-METHYL-2-OXO-5-PHENYL-1H-1,4-BENZODIAZEPIN-3-YL)AMINO)CARBONYL)AMINO)BEN[…] ETHYL ESTER, ALPHA ISOMER]	46
CN1C(=O)[C@@H](NC(=O)CC2C(=O)C3(C)CCC2C3(C)C)N=C(c2ccccc2)c2ccccc21 (single isomer, unassigned) [Example 18]	39
CN1C(=O)[C@H](NC(=O)CC2C(=O)C3(C)CCC2C3(C)C)N=C(c2ccccc2)c2ccccc21 (single isomer, unassigned) [Example 19]	82
CN1C(=O)[C@@H](NC(=O)CC2C3CCC(C)(C2O)C3(C)C)N=C(c2ccccc2)c2ccccc21 (single isomer, unassigned) [Example 22A]	50
CN1C(=O)[C@@H](NS(=O)(=O)C[C@@]23CC[C@@H](CC2=O)C3(C)C)N=C(c2ccccc2)c2ccccc21 [Example 14, (1R-(1.ALPHA.(R*),4.ALPHA.))-N-(2,3-DIHYDRO-1-METHYL-2-OXO-5-PHENYL-1H-1,4- BENZODIAZEPIN-3-YL)-7,7-DIMETHYL-2-OXO-BICYCLO(2.2.1)HEPTANE-1-METHANESULFONAMIDE]	52
CN1C(=O)[C@H](NS(=O)(=O)C[C@]23CC[C@H](CC2=O)C3(C)C)N=C(c2ccccc2)c2ccccc21 [Example 20, (1S-(1.ALPHA.(S*),4.ALPHA.))-N-(2,3-DIHYDRO-1-METHYL-2-OXO-5-PHENYL-1H-1,4- BENZODIAZEPIN-3-YL)-7,7-DIMETHYL-2-OXO-BICYCLO(2.2.1)HEPTANE-1-METHANESULFONAMIDE]	80
CN1C(=O)[C@@H](NS(=O)(=O)C[C@]23CC[C@H](CC2=O)C3(C)C)N=C(c2ccccc2)c2ccccc21 [Example 21, (1S-(1.ALPHA.(R*), 4.ALPHA.))-N-(2,3-DIHYDRO-1-METHYL-2-OXO-5-PHENYL-1H-1,4-BENZODIAZEPIN-3-YL)-7,7-DIMETHYL-2-OXO-BICYCLO(2.2.1)HEPTANE-1-METHANESULFONAMIDE]	15
CN1C(=O)[C@H](NC(=O)C2C(=O)C3(C)CCC2C3(C)C)N=C(c2ccccc2)c2ccccc21 (stereo partly drawn) [Example 23, [3(R)-N-(2,3-DIHYDRO-1-METHYL-2-OXO-5-PHENYL-1H-1,4-BENZODIAZEPIN-3-YL)]-2- OXO-1,7,7-TRIMETHYLBICYCLO(2.2.1)HEPTANE-3-CARBOXAMIDE]	85

Same assay, conditions: read-out: [^3 H]OT(uterus) IC50; inhibition of [^3H]oxytocin binding, rat uterus membranes

Structure (SMILES)	IC50 [nM]
CN1C(=O)C(NS(=O)(=O)CC23CCC(CC2O)C3(C)C)N=C(c2ccccc2)c2ccccc21 (single isomer, unassigned) [Example 16B, N-(2,3-DIHYDRO-1-METHYL-2-OXO-5-PHENYL-1H-1,4-BENZODIAZEPIN-3-YL)-2-HYDROXY-7,7-DIMETHYL-BICYCLO(2.2.1) HEPTANE-1-METHANESULFONAMIDE, ISOMER A AND ISOMER B]	1000
